Reference: patent US12215100B2, “Anticancer compounds” (Pharma Mar, S.A., priority 2018, dated 2025)

Assays:
[1] = test system: MDA-MB-231; assay: SRB colorimetric cytotoxicity assay, MDA-MB-231; format: cell-based, human; conditions: Homo sapiens, breast adenocarcinoma
Text: (§1) The aim of this assay is to evaluate the in vitro cytostatic (ability to delay or arrest tumor cell growth) or cytotoxic (ability to kill tumor cells) activity of the samples being tested.
(§2) A colorimetric assay, using sulforhodamine B (SRB) reaction has been adapted to provide a quantitative measurement of cell growth and viability (following the technique described by V. Vichai and K. Kirtikara (2006) Nature Protoc. 1, 1112-1116.)
(§3) This form of assay employs 96-well cell culture microplates. All the cell lines used in this study were obtained from the American Type Culture Collection (ATCC), unless otherwise indicated, and derive from different types of human cancer.
(§4) Cells were maintained in Dulbecco's Modified Eagle Medium (DMEM) (for A549, HT-29 and MDA-MB-231) or RPMI (for PSN-1) supplemented with 10% Fetal Bovine Serum (FBS), 2 mM L-glutamine, 100 U/mL penicillin and 100 U/mL streptomycin at 37° C., 5% CO2 and 98% humidity. For the experiments, cells were harvested from subconfluent cultures using trypsinization and resuspended in fresh medium before counting and plating.
(§5) Cells were seeded in 96 well microtiter plates, at 5×10^3 cells per well in aliquots of 150 μL, and allowed to attach to the plate surface for 18 hours (overnight) in drug free medium. After that, one control (untreated) plate of each cell line was fixed (as described below) and used for time zero reference value. […] After 72 hours treatment, the antitumor effect was measured by using the SRB methodology: Briefly, cells were washed twice with PBS, fixed for 15 min in 1% glutaraldehyde solution at room temperature, rinsed twice in PBS, and stained in 0.4% SRB solution for 30 min at room temperature. Cells were then rinsed several times with 1% acetic acid solution and air-dried at room temperature. SRB was then extracted in 10 mM trizma base solution and the absorbance measured in an automated spectrophotometric plate reader at 490 nm. Effects on cell growth and survival were estimated by applying the NCI algorithm (Boyd M R and Pauli K D. Drug Dev Res. 1995, 34, 91-104).
(§6) Using the mean±SD of triplicates, a dose-response curve was automatically generated using nonlinear regression analysis to a 4-parameter logistic curve. Three reference parameters were calculated (NCI algorithm) by automatic interpolation: GI50=compound concentration that produces 50% cell growth inhibition, as compared to control cultures; TGI=total cell growth inhibition (cytostatic effect), as compared to control cultures, and LC50=compound concentration that produces 50% net cell killing (cytotoxic effect).

[2] = test system: PSN-1; assay: SRB colorimetric cytotoxicity assay, PSN-1; format: cell-based, human; conditions: Homo sapiens, pancreatic adenocarcinoma
Text: as §1, §2, §3, §4, §5, §6

[3] = test system: HT29; assay: SRB colorimetric cytotoxicity assay, HT29; format: cell-based, human; conditions: Homo sapiens, colorectal adenocarcinoma
Text: as §1, §2, §3, §4, §5, §6

[4] = test system: A549; assay: SRB colorimetric cytotoxicity assay, A549; format: cell-based, human; conditions: Homo sapiens, lung carcinoma (NSCLC)
Text: as §1, §2, §3, §4, §5, §6

[5] = test system: SNU-216; conditions: gastric cancer cell line; WO2002066046; cited from earlier work
[6] = test system: AGS; conditions: gastric cancer cell line; WO2002066046; cited from earlier work
[7] = test system: SNU-638; conditions: gastric cancer cell line; WO2002066046; cited from earlier work
[8] = test system: HepG2; conditions: liver cancer cell line; WO2002066046; cited from earlier work
[9] = test system: Hep3B; conditions: liver cancer cell line; WO2002066046; cited from earlier work
[10] = test system: SK-HEP-1; conditions: liver cancer cell line; WO2002066046; cited from earlier work
[11] = MDA-MB-231, 72 h, 72 hours treatment
[12] = HT-29, 72 h, 72 hours treatment

Row | Structure (SMILES) | GI50 [1, 11] [nM] | GI50 ([2]; PSN1, 72 h, 72 hours treatment) [nM] | GI50 [3, 12] [nM] | GI50 ([4]; A549, 72 h, 72 hours treatment) [nM] | also measured
1 | C=CCOc1cc([C@@H](CCC)NC(=O)[C@]2(C)CSC(/C(C)=N/OP(=O)(OCc3ccccc3)OCc3ccccc3)=N2)oc(=O)c1 [Compound 172] | 108 | 100 | 56.9 | 80.9 | –
2 | CCC[C@@H](NC(=O)[C@@H]1CSC(C(C)=O)=N1)c1cc(OCC2CC2)cc(=O)o1 [Compound 177] | 1610 | > 25500 | 1550 | 2270 | –
3 | CCC[C@@H](NC(=O)[C@@H]1CSC(/C(C)=N/O)=N1)c1cc(OCC2CC2)cc(=O)o1 [Compound 178] | 49.1 | 36.8 | 76.1 | 41.7 | –
4 | CCC[C@@H](NC(=O)[C@]1(C)CSC(/C(C)=N/O[C@H]2O[C@@H]3COC(C)(C)O[C@H]3[C@@H]3OC(C)(C)O[C@H]23)=N1)c1cc(OCC2CC2)cc(=O)o1 [Compound 179] | 13.7 | 14.3 | 6.48 | 9.04 | –
5 | CCC[C@@H](NC(=O)[C@]1(C)CSC(/C(C)=N/O[C@H]2O[C@H](CO)[C@@H](O)[C@@H]3OC(C)(C)O[C@H]23)=N1)c1cc(OCC2CC2)cc(=O)o1 [Compound 180] | 417 | 529 | 369 | 593 | –
6 | CCC[C@@H](NC(=O)[C@]1(C)CSC(/C(C)=N/O[C@H]2O[C@H](CO)[C@@H](O)[C@H](O)[C@@H]2O)=N1)c1cc(OCC2CC2)cc(=O)o1 [Compound 181] | 6340 | 6850 | 4970 | > 17100 | –
7 | C=C(C)C1=N[C@](C)(C(=O)N[C@H](CCC)c2cc(OCC3CC3)cc(=O)o2)CS1 [Compound 182] | 91.5 | 81.6 | 74.2 | 61.8 | –
8 | CCC[C@@H](NC(=O)[C@]1(C)CSC(/C(C)=N/O[Si](c2ccccc2)(c2ccccc2)C(C)(C)C)=N1)c1cc(OCC2CC2)cc(=O)o1 [Compound 183] | – | – | – | – | GI50 ([1]; MDA-MB-231, 72 hours treatment): 5 nM; GI50 ([2]; PSN1, 72 hours treatment): 8.18 nM; GI50 ([3]; HT-29, 72 hours treatment): 5.46 nM; GI50 ([4]; A549, 72 hours treatment): 5.76 nM
9 | CCC[C@@H](NC(=O)[C@]1(C)CSC(/C(C)=N/O[Si](c2ccccc2)(c2ccccc2)C(C)(C)C)=N1)c1cc(O)cc(=O)o1 [Compound 184] | – | – | – | – | GI50 ([1]; MDA-MB-231, 72 hours treatment): 4460 nM; GI50 ([2]; PSN1, 72 hours treatment): 4130 nM; GI50 ([3]; HT-29, 72 hours treatment): 2970 nM; GI50 ([4]; A549, 72 hours treatment): 4790 nM
10 | C=C(OCC)C1=N[C@](C)(C(=O)N[C@H](CCC)c2cc(OCC3CC3)cc(=O)o2)CS1 [Compound 185] | 228 | 140 | 207 | 161 | –
11 | C=CCOc1cc([C@@H](CCC)NC(=O)[C@]2(C)CSC(/C(C)=N/O)=N2)[nH]c(=O)c1 [Compound 190] | 239 | 344 | 244 | 590 | –
12 | CCC[C@@H](NC(=O)[C@]1(C)CSC(/C(C)=N/OCCCCOP(=O)(OC(C)(C)C)OC(C)(C)C)=N1)c1cc(OCC2CC2)cc(=O)o1 [Compound 191] | 612 | 875 | 554 | 496 | –
13 | CCC[C@@H](NC(=O)[C@]1(C)CSC(/C(C)=N/OCCCCOP(=O)(O)O)=N1)c1cc(OCC2CC2)cc(=O)o1 [Compound 192] | 16.4 | 27.9 | 7.15 | 9.07 | –
14 | CCC[C@H](NC(=O)[C@]1(C)CSC(/C(C)=N/O)=N1)c1cc(OC)cc(=O)o1 [Compound epi-1] | 3930 | 5770 | 3410 | 2880 | –
15 | COC1=CC(=O)N(C(=O)[C@H]2CSC([C@H](CO)NC(=O)c3csc(/C=N/O)n3)=N2)C1 [althiomycin] | – | – | – | – | IC50 [5]: 770 nM; IC50 [6]: 850 nM; IC50 [7]: 770 nM; IC50 [8]: 1430 nM; IC50 [9]: 880 nM; IC50 [10]: 810 nM
